Reference: BindingDB's records for doi:10.1021/cb500355c (2015)

Target: RAC-alpha serine/threonine-protein kinase [E49C,C296S,C310S,C344S] (Homo sapiens, UniProt P31749, C296S/C310S/C344S/E49C)
Test: iFLik Assay
Conditions: pH 7.4
Experimental: Labeled Akt1 was diluted to 200 nM in the measurement buffer consisting of 50 mMHEPES pH 7.4, 200 mM NaCl, and 0.01% Triton-X 100. Dilution series of candidate compounds were prepared in DMSO at 21× the final desired concentration. Compounds (0.5 μL) were then mixed with labeled Akt1 (10 μL) in triplicate and with measurement buffer alone (background fluorescence control) in quadruplicate at 12different concentrations. The final compound concentrations ranged from 0.8 nM to 500 μM and each well contained 5% v/v DMSO after mixing. Plates were then covered with an adhesive plastic foil and incubated for 2 h at RT prior to measurement of emission intensities at fluorophore-specific wavelengths

Chain of RAC-alpha serine/threonine-protein kinase [E49C,C296S,C310S,C344S] (P31749 whole entry E49C/C296S/C310S/C344S): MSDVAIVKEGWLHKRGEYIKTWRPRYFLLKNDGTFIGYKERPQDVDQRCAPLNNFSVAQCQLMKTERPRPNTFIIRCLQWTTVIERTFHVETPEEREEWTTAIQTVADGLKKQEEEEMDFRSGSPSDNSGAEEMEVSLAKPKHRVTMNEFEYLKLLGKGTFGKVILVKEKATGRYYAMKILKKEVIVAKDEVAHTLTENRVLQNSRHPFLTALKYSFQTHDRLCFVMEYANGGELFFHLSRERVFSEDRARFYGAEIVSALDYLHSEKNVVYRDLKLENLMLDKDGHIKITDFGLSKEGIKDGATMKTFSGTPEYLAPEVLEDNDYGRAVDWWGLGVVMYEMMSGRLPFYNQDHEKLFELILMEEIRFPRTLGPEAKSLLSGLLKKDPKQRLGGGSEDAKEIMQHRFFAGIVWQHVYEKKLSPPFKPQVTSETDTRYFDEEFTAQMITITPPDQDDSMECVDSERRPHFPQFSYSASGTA

| Kd [µM] | SMILES |
| --- | --- |
| 6 | O=c1[nH]ccc2nc(-c3ccc(CN4CCc5ccccc5C4)cc3)c(-c3ccccc3)cc12 [2-(4-((3,4-Dihydroisoquinolin-2(1H)-yl)methyl)phenyl)-3-phenyl-1,6-naphthyridin-5(6H)-one (7c)] |
| 7.2 | COc1ccc(N2CCN(Cc3ccc(-c4nc5cc[nH]c(=O)c5cc4-c4ccccc4)cc3)CC2)cc1 [2-(4-((4-(4-Methoxyphenyl)piperazin-1-yl)methyl)phenyl)-3-phenyl-1,6-naphthyridin-5(6H)-one (7e)] |
| 1.1 | O=c1[nH]ccc2nc(-c3ccc(CN4CCN(c5ncccn5)CC4)cc3)c(-c3ccccc3)cc12 [3-Phenyl-2-(4-((4-(pyrimidin-2-yl)piperazin-1-yl)methyl)phenyl)-1,6-naphthyridin-5(6H)-one (7f)] |
| 8 | O=C(C1CCCO1)N1CCN(Cc2ccc(-c3nc4cc[nH]c(=O)c4cc3-c3ccccc3)cc2)CC1 (centres undefined) [3-Phenyl-2-(4-((4-(tetrahydrofuran-2-carbonyl)piperazin-1-yl)methyl)phenyl)-1,6-naphthyridin-5(6H)-one (7g)] |
| 2.2 | c1ccc(-c2cn(-c3ccccc3)c3ncnc(NCc4cccs4)c23)cc1 [5,7-diphenyl-N-(thiophen-2-ylmethyl)-7H-pyrrolo[2,3-d]pyrimidin-4-amine (8d)] |
| 264 | Cc1ccc(-n2cc(-c3ccccc3)c3c(NCc4cccs4)ncnc32)cc1Cl [7-(3-chloro-4-methylphenyl)-5-phenyl-N-(thiophen-2-ylmethyl)-7H-pyrrolo[2,3-d]pyrimidin-4-amine (8g)] |
| 99 | Cc1cccc(-n2cc(-c3ccccc3)c3c(NCc4cccs4)ncnc32)c1 [7-(3-methylphenyl)-5-phenyl-N-(thiophen-2-ylmethyl)-7H-pyrrolo[2,3-d]pyrimidin-4-amine (8e)] |
| 20 | Fc1ccc(-n2cc(-c3ccccc3)c3c(NCc4ccccn4)ncnc32)cc1 [7-(4-fluorophenyl)-5-phenyl-N-(pyridin-2-ylmethyl)-7H-pyrrolo[2,3-d]pyrimidin-4-amine (8c)] |
| 7.8 | Cc1ccc(-n2cc(-c3ccccc3)c3c(NCc4cccnc4)ncnc32)cc1 [7-(4-methylphenyl)-5-phenyl-N-(pyridin-3-ylmethyl)-7H-pyrrolo[2,3-d]pyrimidin-4-amine (8b)] |
| 2.2 | Cc1ccc(-n2cc(-c3ccccc3)c3c(NCc4cccs4)ncnc32)cc1 [7-(4-methylphenyl)-5-phenyl-N-(thiophen-2-ylmethyl)-7H-pyrrolo[2,3-d]pyrimidin-4-amine (8a)] |
| 0.9 | COC(=O)C1CCN(Cc2ccc(-c3nc4cc[nH]c(=O)c4cc3-c3ccccc3)cc2)CC1 [Methyl 1-(4-(5-oxo-3-phenyl-5,6-dihydro-1,6-naphthyridin-2-yl)benzyl)piperidine-4-carboxylate (7d)] |
| 6 | Cc1ccc(-n2cc(-c3ccccc3)c3c(NCc4ccccc4)ncnc32)cc1 [N-benzyl-7-(4-methylphenyl)-5-phenyl-7H-pyrrolo[2,3-d]pyrimidin-4-amine (8f)] |

| SMILES | Kd [µM] |
| --- | --- |
| O=c1[nH]ccc2nc(-c3ccc(CN4CCC(n5c(=O)[nH]c6ccccc65)CC4)cc3)c(-c3ccccc3)cc12 [2-(4-((4-(2-Oxo-2,3-dihydro-1H-benzo[d]imidazol-1-yl)piperidin-1-yl)methyl)phenyl)-3-phenyl-1,6-naphthyridin-5(6H)-one (7a)] | 0.41 |
| O=c1[nH]ccc2nc(-c3ccc(CN4CCC(n5c(=O)[nH]c6cc(Cl)ccc65)CC4)cc3)c(-c3ccccc3)cc12 [2-(4-((4-(5-Chloro-2-oxo-2,3-dihydro-1H-benzo[d]imidazol-1-yl)piperidin-1-yl)methyl)phenyl)-3-phenyl-1,6-naphthyridin-5(6H)-one (7b)] | 0.15 |
